# Test results reported in patent US5877210A, “Phosphotyrosine phosphatase inhibitors or phosphotyrosine kinase activators for controlling cellular proliferation” (priority 1995, dated 1999).
# How the values were obtained:
# HCT116 = experiment: In vitro cytotoxicity, XTT assay; details: Homo sapiens, HCT-116, 72 h, read-out: IC50 (cytotoxicity)
# Procedure: (§1) The vanadate compound pV(phen) was tested for in vitro cytotoxicity in a panel of human tumor cell lines. The cell lines used were a human colon carcinoma cell line, HCT116, and two drug-resistant sublines. The HCT116(VM46) subline was selected for resistance to VM-26 and expresses the multidrug resistant (MDR) phenotype including resistance to lipophilic anticancer drugs such as paclitaxel, VP-16, VM-26, doxorubicin, and vinblastine. This cell line overexpresses P-glycoprotein, a cell surface drug efflux pump, which limits accumulation of anticancer drugs such as the ones mentioned above. […] The compound pV(phen) was also evaluated in the ovarian carcinoma cell line A2780 and a paclitaxel resistant subline A2780-Tax22.
# (§2) In the cytotoxicity assays, cells were plated and 24 hr later drugs were added and serially diluted. After 72 hr of continuous drug exposure, the tetrazolium dye XTT was added. A dehydrogenase enzyme in live cells reduces the XTT to a form that absorbs light at 450 nm which can be quantitated spectrophotometrically. The greater absorbance, the greater is the number of live cells. The results are expressed as a IC50 which is a drug concentration required to inhibit cell proliferation (i.e., absorbance at 450 nm) to 50% of that of untreated control cells.
# A2780 = experiment: In vitro cytotoxicity, XTT assay; details: Homo sapiens, A2780, 72 h, read-out: IC50 (cytotoxicity)
# Procedure: as §1, §2
# HCT116(VP)35 = experiment: In vitro cytotoxicity, XTT assay
# Procedure: as §1, §2
# A2780/Tax22 = experiment: In vitro cytotoxicity, XTT assay
# Procedure: as §1, §2
# HCT116(VM)46 = experiment: In vitro cytotoxicity, XTT assay
# Procedure: as §1, §2
# Ramos [1] = experiment: Clonogenic assay in methylcellulose; type: cell-based, human; details: doses of 10 and 25 μM
# Procedure: The selective cytotoxicity of BMLOV was examined in clonogenic assays. Cells were grown in methylcellulose media and the number of colonies formed after seven days of treatment with various doses of the drug were determined. The clonogenic assays were performed with six replicates for each treatment as described [F. M. Uckun et al., J. Exp. Med. 163:347-368 (1986); F. M. Uckun & J. A. Ledbetter, Proc. Natl. Acad. Sci. USA 85:8603-8607 (1988)). The data is given plus/minus the standard error of the mean.
# For assays of cellular proliferation, cells were grown five days in the presence of the indicated concentrations of BMLOV, pulsed 6 hr with [^3 H]-thymidine (New England Nuclear, Boston, Mass.), and counted in a liquid scintillation counter. Human peripheral blood lymphocytes (PBL) from normal volunteers were isolated from lymphocyte separation medium (Litton Bionetics, Kensington, Md.) by density gradient centrifugation. Monocytes were depleted from PBL by two rounds of plastic absorption for 30 minutes at 37° C. B cells were enriched for by negative selection using complement plus monoclonal antibodies to CD2, CD3, CD4, and CD8 for complement depletion. Clonogenic assays of colony formation in methylcellulose medium were performed as previously described (F. M. Uckun et al. (1992), supra).
# Ramos [2] = experiment: Clonogenic assay in methylcellulose; type: cell-based, human; details: Ramos B cells
# Ramos cells = experiment: Anti-phosphotyrosine western blot of cell lysates; type: cell-based, human; details: FIG. 11; whole cell lysates
# Ramos [3] = details: previous studies (Uckun et al. 1992); cited from earlier work
# [4] = tested on: calf intestinal alkaline phosphatase; details: reported by Cortizo et al.; cited from earlier work
structure (smiles),measurement,setting,value
"CC(=O)O[C@H]1C(=O)[C@@]2(C)[C@H]([C@H](OC(=O)c3ccccc3)[C@]3(O)C[C@H](OC(=O)[C@H](O)[C@@H](NC(=O)c4ccccc4)c4ccccc4)C(C)=C1C3(C)C)[C@]1(OC(C)=O)CO[C@@H]1C[C@@H]2O [Paclitaxel, reference compound]",IC50,HCT116,3 nM
same,IC50,A2780,4 nM
same,IC50,"HCT116(VP)35; Homo sapiens, HCT-116, 72 h, read-out: IC50 (cytotoxicity)",2 nM
same,fold resistance relative to parental cell line,"HCT116(VP)35; vs HCT116, 4320 min",0.7 fold
same,IC50,"A2780/Tax22; Homo sapiens, A2780, 72 h, read-out: IC50 (cytotoxicity)",75 nM
same,fold resistance relative to parental cell line,"A2780/Tax22; vs A2780, 4320 min",18 fold
same,IC50,"HCT116(VM)46; Homo sapiens, HCT-116/VM46, 72 h, read-out: IC50 (cytotoxicity)",226 nM
same,fold resistance relative to parental cell line,"HCT116(VM)46; vs HCT116, 4320 min",75 fold
CC(=O)C=C(C)[O-].CC(=O)C=C(C)[O-].[Cu+2] [cupric acetylacetonate],"sensitivity in clonogenic assay, in words",Ramos [1],sensitive to the compound
same,Colonies,Ramos [2]; 1 μM cupric acetylacetonate,5749
same,Colonies,Ramos [2]; 5 μM cupric acetylacetonate,226
same,Colonies,Ramos [2]; 10 μM cupric acetylacetonate,127
same,Colonies,Ramos [2]; 25 μM cupric acetylacetonate,31
same,induction of cellular tyrosine phosphorylation by analogs,Ramos cells,"induced tyrosine phosphorylation, but in a different pattern than for the vanadyl compounds"
[Na+].[Na+].[Na+].[O]=[V]([O-])([O-])[O-] [sodium orthovanadate],effect on Ramos cells in clonogenic assays,Ramos [3],only gave slight effects
same,concentration strongly inhibiting calf intestinal alkaline phosphatase,[4],less than 20 μM
CC(=O)C=C([O-])c1ccccc1.CC(=O)C=C([O-])c1ccccc1.[O]=[V+2] [vanadyl 1-benzoyl acetonate],induction of cellular tyrosine phosphorylation by analogs,Ramos cells,strongly induced cellular tyrosine phosphorylation
CC(=O)/C=C(/C)[O-].CC(=O)/C=C(/C)[O-].[O]=[V+2] [vanadyl acetylacetonate],induction of cellular tyrosine phosphorylation by analogs,Ramos cells,strongly induced cellular tyrosine phosphorylation
